# “Also recorded” adds a separate entry of the source. Structures can show the parent of a compound that is named as a salt. Where two headings read alike, the source gives them in different places.
# How the values were obtained:
# [1] = tested on: HCV RNA replication (full-length HCV RNA genome harboring a Luciferase reporter gene); assay: Luciferase reporter-linked HCV replication assay in Huh7.5 cells; assay type: cell-based, Hepatitis C Virus; conditions: for activity at 5 µM / activity at 10 µM: Hepatitis C virus, Huh7.5
# Protocol: For example, HCV replication assays employing a luciferase reporter-linked HCV genome in the presence of various combinations of clemizole and an NS3 protease inhibitor (SCH503034) are shown in FIGS. 1A and 1B. In such assays, luciferase activity is directly proportional to HCV RNA genome replication. […] The results can be plotted on a linear or log scale as a function of drug concentrations to generate replication inhibition curves.
# Luciferase assays were performed at 72 hr.
# Medium was changed daily.
# The experiment was repeated four times, each time with triplicates.
# [2] = cited from earlier work
# [3] = biological target: NS4B binding to the 3′ terminus of the HCV negative strand RNA (Hepatitis C virus genotype 1a, UniProt P27958); assay: Microfluidic (MITOMI) in vitro RNA binding assay of NS4B
# [4] = tested on: infectious HCV clone (J6/JFH); assay type: cell-based, Hepatitis C Virus; conditions: FIG. 15, 72 hours
# R214Q mutant HCV RNA = assay: Luciferase reporter linked replication assay with the clemizole-resistant R214Q mutant; assay type: cell-based; conditions: Hepatitis C virus, read-out: EC50 on the R214Q mutant
# [5] = biological target: HuR binding to the consensus 4A RNA sequence (Homo sapiens, UniProt Q15717); assay: Specificity: HuR binding to 4A RNA by microfluidics; conditions: hits at 0.1 mM
# Protocol: Next a standard 25 μL TNT T7 coupled wheat germ extract mixture (Promega) was prepared and spiked with 1 μL tRNALys-bodipy-fl (Promega) and 2 μL of plasmid DNA template coding for the appropriate protein (HuR, HuD or Gus). The mixture was immediately loaded into the device and flushed for 5 min, after which the chamber valves were opened allowing for dead end filling of the chambers with wheat germ extract. The chamber valves were again closed and flushing continued for an additional 5 min. Next the segregation valves separating each unit cell were closed, followed by opening of the chamber valves allowing for equilibration of the unit cell by diffusion. The entire device was heated to 30° C. on a temperature controlled microscope stage and incubated for up to 90 min to complete protein synthesis, binding of protein to the surface bound biotinylated-5-histidine antibody, solvation of target RNA, and equilibration of proteins and target RNA. […] Radial closure prevents solvent pockets from forming between the two interfaces and effectively creates zero dead volume while preserving the equilibrium concentrations of the molecular interactions to be detected. This was followed by a 5 min PBS wash to remove untapped unbound material. The device was then imaged on a modified array WoRxe (AppliedPrecision) microarray scanner to detect protein synthesis and the trapped molecules. […]
# [6] = human, in vivo; cited from earlier work
# HCV (genotype 4) = assay: Treatment of patients chronically infected with HCV, serum HCV viral load; assay type: in vivo, human
# Protocol: Three patients chronically-infected with HCV (genotype 4) were treated in accordance with an embodiment of the method of the invention. All were male and had baseline ALT elevations and significant HCV viral loads ranging from 290,000-730,000 IU/ml.
# After the first four weeks of clemizole monotherapy, pegylated interferon was added.
# [7] = biological target: T1, W55R NS4B mutant binding to HCV RNA (Hepatitis C virus genotype 1a, UniProt P27958, A1893V/D1840G/F1898S/L1839I/R1905H/S1900A/W1766R); assay: Microfluidic in vitro RNA binding assay of W55R NS4B mutant; conditions: in the presence of 10 nM clemizole
# T1 construct: made in house; host or cells: coupled transcription/translation rabbit reticulocyte system (Promega) with canine microsomal membranes
# W55R mutant J6/JFH RNA = assay: Replication assays with the clemizole-resistant W55R mutant; assay type: cell-based, Hepatitis C Virus
# [8] = guinea pig; cited from earlier work
# Huh7.5 cells = assay: Alamar Blue-based viability assay; conditions: HCV-infected Huh7.5 cells, FIG. 15
# Protocol: (§1) The in vivo antiviral effect on HCV RNA replication of the inhibitory compounds identified in the above screen was measured. Following electroporation with a full-length HCV RNA genome harboring a Luciferase reporter gene^28, Huh7.5 cells were grown in the presence of increasing concentrations of these compounds. Luciferase assays were performed at 72 hr. In parallel, the viability of cells in the presence of the compounds was assessed by an Alamar Blue-based assay.
# (§2) Following 72 hrs of treatment, cells were incubated for 3 hrs at 37° C. in the presence of 10% Alamar Blue reagent (TREK Diagnostic Systems). Plates were then scanned and fluorescence was detected by using FLEXstation II 384 (Molecular Devices, Inc.).
# [9] = Alamar Blue-based viability assay; conditions: human
# Protocol: as §1, §2
# [10] = biological target: HuR binding to the 3′ terminus of the negative HCV RNA strand (Homo sapiens, UniProt Q15717); assay: Specificity: HuR binding to the 3′ terminus of the negative HCV RNA strand; conditions: hits at 0.1 mM
# Protocol: Specificity of hits identified in the small molecule screen: To determine the specificity of the hits identified in the small molecule screen, the HuR protein (one of the human RNA binding protein used to validate our RNA binding assay) was selected. […] Binding of HuR to the consensus 4A RNA sequence was tested in the presence of the inhibitory molecules shown to inhibit RNA binding by NS4B. […] Similarly, 0.1 mM of the identified compounds didn't have an inhibitory effect on binding of HuR to the 3′ terminus of the negative HCV RNA strand.
# [11] = 40 to 160 mg/day, 1 to 12 weeks
# [12] = 3 patients, clemizole 100 mg po BID monotherapy
# [13] = read-out: AV (HCV RNA replication, percent of normal activity remaining)
# [14] = read-out: AV score (binned residual HCV replication)
smiles,measurement,setting,value
Clc1ccc(Cn2c(CN3CCCC3)nc3ccccc32)cc1 [clemizole],effect of adding clemizole to NS3 protease inhibitor SCH503034 on HCV replication,"[1]; SCH503034 1-5 micromolar, 72 hours",increase the inhibition of HCV replication in a dose-dependent manner by up to several logs
same,patients reporting excellent relief of itching,[2]; [11],66%
same,patients reporting good relief of itching,[2]; [11],23%
same,patients with mild side effects (drowsiness most common),"[2]; human, in vivo",4 patients
same,IC50,[3],~0.024 µM
same,reduction of RNA binding of wild type NS4B,[3]; in the presence of 10 nM clemizole,~2 fold
same,HCV replication levels by real-time PCR,[4],inhibits HCV replication
same,EC50,R214Q mutant HCV RNA,40.3 µM
same,effect on binding of HuR to 4A RNA,[5],No inhibitory effect
same,"drowsiness, share of the patients treated (Zierz and Greither)",[6],1.3%
same,HCV viral load at week 2,HCV (genotype 4); [12],drops in HCV viral load
same,HCV viral load at week 4,HCV (genotype 4); [12],"nearly at or below the limit of HCV detection; also recorded: completely, or nearly, undetectable"
same,HCV viral load after 8 weeks,HCV (genotype 4); 4 weeks clemizole monotherapy plus 4 weeks clemizole with standard dose pegylated interferon,below the limit of detection
same,reduction of RNA binding of W55R NS4B mutant,[7],~2 fold
same,replication of W55R mutant in presence of clemizole,"W55R mutant J6/JFH RNA; 10 μM clemizole, whole cell RNA (colonies) or in vitro-transcribed luciferase RNA",unaffected
same,EC50,"W55R mutant J6/JFH RNA; Hepatitis C virus, read-out: EC50 on the W55R mutant J6/JFH RNA",~18 µM
same,prevention of histamine-induced asthma,[8],superior to atropine and other antihistamines in preventing histamine-induced asthma
same,toxicity to the cell in real-time PCR experiment,Huh7.5 cells,no measurable toxicity to the cell
CC(C)(C)c1ccc(Cn2cnc3ccccc32)cc1,activity at 5 µM,[1]; [13],30%
same,activity at 5 µM,[1]; [14],10 to 30%
same,activity at 10 µM,[1]; [13],12%
same,activity at 10 µM,[1]; [14],10 to 30%
"Clc1ccc(Cn2c(CN3CCCC3)nc3ccccc32)cc1 [Clemizole hydrochloride, clemizole hydrochloride, reference compound]",decrease in viral replication,"[1]; 20 μM, 72 hr",tenfold
Brc1ccc(Cn2cnc3ccccc32)cc1,activity at 5 µM,[1]; [13],23%
same,activity at 5 µM,[1]; [14],10 to 30%
same,activity at 10 µM,[1]; [13],8%
same,activity at 10 µM,[1]; [14],10 to 30%
Cc1ccc(Cn2cnc3ccccc32)cc1,activity at 5 µM,[1]; [13],49%
same,activity at 5 µM,[1]; [14],30 to 60%
same,activity at 10 µM,[1]; [13],23%
same,activity at 10 µM,[1]; [14],10 to 30%
Cc1nc2cc(Cl)ccc2n1Cc1ccccc1,activity at 5 µM,[1]; [13],87%
same,activity at 5 µM,[1]; [14],60 to 90%
same,activity at 10 µM,[1]; [13],60%
same,activity at 10 µM,[1]; [14],60 to 90%
Clc1ccc(Cn2c(CN3CCCC3)nc3ccccc32)cc1 [drawing 415],activity at 5 µM,[1]; [13],62%
same,activity at 5 µM,[1]; [14],60 to 90%
same,activity at 10 µM,[1]; [13],37%
same,activity at 10 µM,[1]; [14],30 to 60%
same,"viability at 72 h, 5 µM",[9],107%
same,"viability at 72 h, 10 µM",[9],93%
Cc1nc2ccccc2n1Cc1ccc(Br)cc1,activity at 5 µM,[1]; [13],3%
same,activity at 5 µM,[1]; [14],10 to 30%
same,activity at 10 µM,[1]; [13],2%
same,activity at 10 µM,[1]; [14],10 to 30%
"O=C(O)C1=CC(=C(c2ccc(O)c(C(=O)O)c2)c2ccc(O)c(C(=O)O)c2)C=CC1=O [ATA, Aurintricarboxilic acid]",effect on binding of HuR to 4A RNA,[5],significantly inhibited; also recorded: affected
same,effect on binding of HuR to the 3′ terminus of the negative HCV RNA strand,[10],significantly inhibited
COC(=O)c1ccc(Cn2cnc3ccccc32)cc1,activity at 5 µM,[1]; [13],74%
same,activity at 5 µM,[1]; [14],60 to 90%
same,activity at 10 µM,[1]; [13],54%
same,activity at 10 µM,[1]; [14],30 to 60%
Cc1cc2ncn(Cc3ccc(Cl)cc3Cl)c2cc1C,activity at 5 µM,[1]; [13],30%
same,activity at 5 µM,[1]; [14],10 to 30%
same,activity at 10 µM,[1]; [13],8%
same,activity at 10 µM,[1]; [14],10 to 30%
COc1ccc(Cn2cnc3ccccc32)cc1,activity at 5 µM,[1]; [13],70%
same,activity at 5 µM,[1]; [14],60 to 90%
same,activity at 10 µM,[1]; [13],58%
same,activity at 10 µM,[1]; [14],30 to 60%
OCc1nc2ccccc2n1Cc1ccc(Br)cc1,activity at 5 µM,[1]; [14],30 to 60%
same,activity at 10 µM,[1]; [13],28%
same,activity at 10 µM,[1]; [14],10 to 30%
